Experimental data reported in US20220241314A1, “COMPOSITIONS AND METHODS FOR TREATMENT OF HEPATITIS B VIRUS INFECTION” (priority 2019, published 2022).
Like-named read-outs stand apart in the source and are kept apart here. {ppp} = triphosphate

B1: poly-U/UC PAMP: ~100 nt PAMP motif from the HCV genome comprising 5′ppp and the poly U/UC region, recognized by RIG-I; formulated in liposome (nucleic acid)
chain: GGCCAUCCUGUUUUUUUCCCUUUUUUUUUUUCUUUUUUUUUUUUUUUUUUUUUUUUUUUUUUUUUUCUCCUUUUUUUUUCCUCUUUUUUUCCUUUUCUUUCCUUU
modifications: RNA, 5' {ppp}, backbone and methylation of C not given here; formulated in liposome
notes: ~100 nt PAMP motif from the HCV genome comprising 5′ppp and the poly U/UC region, recognized by RIG-I; formulated in liposome

How the values were obtained:
[1] = system: HBV cccDNA; assay: HBV cccDNA formation in infected differentiated HepaRG cells (Southern blot, RT-qPCR); type: cell-based, HBV (Genotype D); conditions: HBV 1000 Geq/cell, harvested 3 dpi; for IC50: read-out: IC50, decline of cccDNA relative to DMSO treated controls; for IC90: read-out: IC90, decline of cccDNA relative to DMSO treated controls
Procedure: The scheme illustrates the schedule with HBV inoculum (1000 Geq/cell) and administration of Cyclosporin A (CsA), F7, X-RNA and poly-U/UC PAMP. 2.5% DMSO was added to the medium at 1 day post infection (Dpi). cccDNA and PF RC DNA were harvested from HepG2-hNTCP cells using Hirt extraction method and analyzed by Southern blot analysis using an HBV-specific DNA probe. Viral protein-free DNAs (protein-free Relaxed Circular DNA [PF-RC DNA] and cccDNA) are noted. (2B and 2C) HepG2-hNTCP 2(B) or differentiated HepaRG cells (2C) were infected with HBV at moi of 1000 Geq/cell, and administered CsA (10 μM) or F7, in the indicated concentrations. For upper panels of (2B) and (2C), DNAs were isolated after Hirt extraction at 3 dpi and subjected to Southern blot analysis using as HBV-DNA probe. […] (2D and 2E) HepG2-hNTCP (2D) or dHepaRG cells (2E) were infected with HBV at an moi of 1000 Geq/cell, and administered CsA (10 μM), X-RNA (100 ng/ml), or poly-U/UC PAMP in the indicated concentrations. For upper panels of (2D) and (2E), DNAs were analyzed using Southern blot analysis. For lower panels of (2D) and (2E), DNAs were analyzed by RT-qPCR. IC90, and IC50 values were calculated based on the decline of the cccDNA relative to DMSO treated controls. IC90, and IC50 values are the average of three experiments±one standard deviation. […] Positions of mass markers are indicated on each Southern blot.
HBV infection HBV (Genotype D) was purified from the supernatant of HepAD38 cells by PEG concentration and subsequent sucrose gradient, as described previously (Ko, C., et al. (2014). DDX3 DEAD-Box RNA Helicase Is a Host Factor That Restricts Hepatitis B Virus Replication at the Transcriptional Level. Journal of Virology 88, 13689-13698; Watashi, K., et al. (2013), supra). For HBV infection cells were seeded into collagen-coated plates. One day later, the cells were infected with HBV in DMEM containing 4% polyethylene glycol 8000 (PEG-8000). The multiplicities of infection (expressed as virus genome equivalent/cell) are indicated in each Figure Legend. The inocula were removed 24 hours later, and the infected cultures were maintained in complete DMEM containing 2.5% DMSO until harvesting, as described previously (Ni, Y., et al. (2014). Hepatitis B and D viruses exploit sodium taurocholate co-transporting polypeptide for species-specific entry into hepatocytes. Gastroenterology 146, 1070-1083).
Reverse transcription quantitative real time qPCR (RT-qPCR) analysis: Total cellular RNAs were extracted from cells using TRIZOL reagent and the manufacturers protocol (Invitrogen). cDNA was synthesized from the purified RNA by both random and oligo (dT) priming using iScript select cDNA synthesis kit (Biorad, Inc.). […]

[2] = system: HBV cccDNA; assay: Subcellular compartment analysis of PF-RC DNA and cccDNA (synchronous infection, cell fractionation); type: cell-based, HBV (Genotype D); conditions: HepG2-hNTCP, treated from time 0 through 3 dpi; F7 10 μM, poly-U/UC PAMP 100 ng/ml
Procedure: FIG. 4A-4D illustrate subcellular compartment analysis of antiviral activity. (4A) and (4C) Scheme of HBV infection with F7 treatment (4A) or poly-U/UC PAMP treatment (4C). HepG2-hNTCP cultures were inoculated with HBV at moi 1000 Geq/cell for 24 hr. On treatment day 0 the cultures received F7 (10 μM) or poly-U/UC PAMP (100 ng/ml). Cells were harvested for production of Hirt extracts at each time point shown through three days. Parallel cultures were harvested for Western blot analysis to monitor Lamin B1 and Calnexin as markers of […] and cytosol respectively. (4B) and (4D) DNA was analyzed by Southern blot using HBV-specific DNA probe. Viral protein-free DNAs (protein-free Relaxed Circular DNA [PF-RC DNA]and cccDNA) are indicated. The positions of mass markers are indicated. Lower panels show Western blot of Lamin B1 and Calnexin abundance.
Cells were inoculated with HBV for 6 hours at 4° C., then the inoculum was removed, cells rinsed and placed in 37° C. media to initiate synchronous infection (time 0), at which time the cells were treated with F7 (FIG. 4A), or poly-U/UC PAMP (FIG. 4C) through 3 dpi. Whole cell (W), nuclear (N), and cytoplasmic (C) extracts were harvested over the time course, at 3 and 6 hours post-infection, and daily over 1-3 dpi, and PF-RC and cccDNA abundance were analyzed by Southern blot. […] For poly-U/UC PAMP treatment, cells were also harvested over a similar time course (see FIG. 4C).
HBV entry assay and cell fractionation: Cells were inoculated with HBV in presence of 4% PEG for 6 hours at 4°C. To assess HBV entry, inoculum was removed by washing with PBS that included proteinase K and cells were shifted to 37° C. post-attachment. After incubation and treatment, the cells were lysed in a hypotonic buffer (100 MM HEPES, 15 mM MgCl2, 100 mM KCL and Nonidet P-40), and homogenized with a dounce homogenizer. The cytoplasmic fraction was separated from nuclei pellet by centrifugation (6000×g for 5 min at 4° C.). Nuclei pellet was resuspended in extraction buffer (20 mM HEPES, 15 mM MgCl2, 420 mM NaCl, 0.2 mM EDTA and 25% (v/v) Glycerol including DTI and protease inhibitor cocktail). Each cellular fraction was mixed with 1% SDS (v/v) and protein-free DNA was extracted using the Hirt extraction method.

[3] = Hepatitis B virus, differentiated HepaRG cells

Molecule | IC50 [1, 3] [µM] | IC90 [1, 3] [µM] | PF-RC DNA in subcellular fractions, Southern blot [2] | cccDNA accumulation, Southern blot [2] | IC50 ([1]; dHepaRG cells) [µM] | IC90 ([1]; dHepaRG cells) [µM]
O=C(Nc1ccc2nc(NC(=O)c3ccc4ccccc4c3)sc2c1)c1ccccc1 [F7, N-(6-benzamido-1,3-benzothiazol-2-yl)naphthalene-2-carboxamide] | ~3.38 | ~12.8 | accumulation was reduced after 2-3 dpi | delayed and reduced | – | –
B1 | – | – | Nuclear PF-RC DNA levels were reduced | reduction of cccDNA | ~0.00161 | ~0.0033
